According to PubChem BioAssay (NCI):
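Exposure lasted 48 hours, with cells grown in 96-well plates and compounds tested at five concentrations. Abbreviation: GI50, concentration required for 50% inhibition of growth. TGI: total growth inhibition.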

Tests used:
Experiment in all cases: NCI-60 cell line screen, 48 h
HCT-15 colon = tested on: HCT-15 colon
BT-549 breast = tested on: BT-549 breast
MCF7 breast = tested on: MCF7 breast
SF-539 CNS = tested on: SF-539 CNS
UO-31 renal = tested on: UO-31 renal
HL-60(TB) leukemia = tested on: HL-60(TB) leukemia
SR leukemia = tested on: SR leukemia
SF-268 CNS = tested on: SF-268 CNS
NCI-H226 lung = tested on: NCI-H226 lung
SF-295 CNS = tested on: SF-295 CNS

COC(=O)c1cc(-c2ccc(OC)c(OC)c2)[nH]c1N/N=C/c1c(Cl)cccc1Cl
GI50 (HCT-15 colon): 0.946 µM | TGI (HCT-15 colon): 24 µM | GI50 (BT-549 breast): 0.887 µM | TGI (BT-549 breast): 3.48 µM | GI50 (MCF7 breast): 0.301 µM | TGI (MCF7 breast): 1.44 µM | GI50 (SF-539 CNS): 0.317 µM | TGI (SF-539 CNS): 1.02 µM | GI50 (UO-31 renal): 0.834 µM | TGI (UO-31 renal): 3.25 µM | GI50 (HL-60(TB) leukemia): 0.25 µM | TGI (HL-60(TB) leukemia): 0.531 µM | GI50 (SR leukemia): 0.394 µM | TGI (SR leukemia): > 100 µM | GI50 (SF-268 CNS): 0.705 µM | TGI (SF-268 CNS): 6.27 µM | GI50 (NCI-H226 lung): 1.9 µM | TGI (NCI-H226 lung): > 51.3 µM | GI50 (SF-295 CNS): 0.257 µM | TGI (SF-295 CNS): 2.07 µM

Cc1[nH]c(-c2cc(N)ccc2Cl)c2c1C(=O)CCCC2
GI50 (HCT-15 colon): 3.3 µM | TGI (HCT-15 colon): > 100 µM | GI50 (BT-549 breast): 5.89 µM | TGI (BT-549 breast): > 100 µM | GI50 (MCF7 breast): 2.32 µM | TGI (MCF7 breast): > 100 µM | GI50 (SF-539 CNS): 3.13 µM | TGI (SF-539 CNS): 26.7 µM | GI50 (UO-31 renal): 0.477 µM | TGI (UO-31 renal): 15.1 µM | GI50 (HL-60(TB) leukemia): 2.03 µM | TGI (HL-60(TB) leukemia): 6.79 µM | GI50 (SR leukemia): 2.64 µM | TGI (SR leukemia): > 100 µM | GI50 (SF-268 CNS): 7.99 µM | TGI (SF-268 CNS): > 100 µM | GI50 (NCI-H226 lung): 3.37 µM | TGI (NCI-H226 lung): > 100 µM | GI50 (SF-295 CNS): 8.01 µM | TGI (SF-295 CNS): > 100 µM

Nc1n[nH]c2ccc([C@@H]3Nc4cc5c(cc4[C@H]4C6CCC(C6)[C@@H]34)C(=O)NC5)cc12 (some centres not stated)
GI50 (HCT-15 colon): 0.601 µM | TGI (HCT-15 colon): > 100 µM | GI50 (BT-549 breast): 0.32 µM | TGI (BT-549 breast): 1.71 µM | GI50 (MCF7 breast): 0.18 µM | TGI (MCF7 breast): > 100 µM | GI50 (SF-539 CNS): 0.258 µM | TGI (SF-539 CNS): 0.814 µM | TGI (UO-31 renal): > 100 µM | GI50 (HL-60(TB) leukemia): 0.282 µM | GI50 (SR leukemia): 0.149 µM | TGI (SR leukemia): > 100 µM | GI50 (SF-268 CNS): 1.04 µM | TGI (SF-268 CNS): > 100 µM | GI50 (NCI-H226 lung): 0.461 µM | TGI (NCI-H226 lung): > 20.9 µM | GI50 (SF-295 CNS): 0.323 µM | TGI (SF-295 CNS): > 42 µM

Cc1[nH]nc(-c2ccon2)c1N=O
TGI (HCT-15 colon): 34.7 µM | TGI (BT-549 breast): 38 µM | TGI (MCF7 breast): 63.2 µM | TGI (SF-539 CNS): 32.7 µM | TGI (UO-31 renal): 46.6 µM | TGI (HL-60(TB) leukemia): 36.3 µM | TGI (SR leukemia): 29.5 µM | TGI (SF-268 CNS): 42.8 µM | TGI (NCI-H226 lung): 28.6 µM | TGI (SF-295 CNS): 34.6 µM

CC1C=CC(OC(=O)C(C)(O)CCC(O)(C(=O)OC2CC(O)C(C(C)C)CC2(C)O)C(C)C)(C(C)C)CC1 (configuration not stated)
GI50 (HCT-15 colon): 0.235 µM | TGI (HCT-15 colon): 0.869 µM | GI50 (BT-549 breast): 0.561 µM | TGI (BT-549 breast): 1.22 µM | GI50 (MCF7 breast): 0.182 µM | TGI (MCF7 breast): 0.904 µM | GI50 (SF-539 CNS): 0.685 µM | TGI (SF-539 CNS): 1.35 µM | GI50 (UO-31 renal): 0.329 µM | TGI (UO-31 renal): 1.02 µM | GI50 (HL-60(TB) leukemia): 0.655 µM | TGI (HL-60(TB) leukemia): 1.68 µM | GI50 (SR leukemia): 0.263 µM | TGI (SR leukemia): 46.3 µM | GI50 (SF-268 CNS): 0.645 µM | TGI (SF-268 CNS): 1.64 µM | GI50 (NCI-H226 lung): 0.716 µM | TGI (NCI-H226 lung): 2.48 µM | GI50 (SF-295 CNS): 0.657 µM | TGI (SF-295 CNS): 1.41 µM

C1CSCCSCCCSCCSCCCSCCSCCCSCCSC1
TGI (HCT-15 colon): > 100 µM | TGI (BT-549 breast): > 100 µM | TGI (MCF7 breast): > 100 µM | TGI (SF-539 CNS): > 100 µM | TGI (UO-31 renal): > 100 µM | TGI (HL-60(TB) leukemia): > 100 µM | TGI (SR leukemia): > 100 µM | TGI (SF-268 CNS): > 100 µM | TGI (NCI-H226 lung): > 100 µM | TGI (SF-295 CNS): > 100 µM

COc1cc(C(=O)c2cc(C)c3[nH]c4ccc(O)cc4c3c2C)cc(OC)c1OC
GI50 (HCT-15 colon): 0.0196 µM | TGI (HCT-15 colon): > 100 µM | GI50 (BT-549 breast): < 0.0164 µM | TGI (BT-549 breast): 1.26 µM | GI50 (MCF7 breast): < 0.01 µM | TGI (MCF7 breast): > 44.4 µM | GI50 (SF-539 CNS): < 0.0113 µM | GI50 (UO-31 renal): 0.269 µM | TGI (UO-31 renal): > 100 µM | GI50 (HL-60(TB) leukemia): 0.0246 µM | TGI (HL-60(TB) leukemia): 0.0797 µM | GI50 (SR leukemia): < 0.01 µM | TGI (SR leukemia): > 100 µM | GI50 (SF-268 CNS): 0.0741 µM | TGI (SF-268 CNS): > 100 µM | GI50 (NCI-H226 lung): 0.0943 µM | TGI (NCI-H226 lung): > 81.3 µM | GI50 (SF-295 CNS): < 0.01 µM | TGI (SF-295 CNS): 0.326 µM
